Measured values as given in US20250065017A1, “Fractionating Extracellular Matrix to Modulate Bioactivity and the Host Response” (University of Pittsburgh - Of the Commonwealth System of …, priority 2014, published 2025).

Experiments:
Sprague Dawley rats = assay: Rat skeletal muscle injury model: collagen deposition and myogenesis; type: in vivo; details: UBM implant
Protocol: An established rodent skeletal muscle injury model was used to evaluate the effect of the COX1/2 inhibitor, Aspirin, on the ECM scaffold mediated constructive remodeling response. Briefly, three days prior to the surgical procedure, animals were randomly assigned to either the Aspirin treated (3 mg/mL Aspirin in drinking water) or control (vehicle) group. Bilateral 1.5 cm×1.5 cm partial thickness defects were created in the abdominal musculature. A size-matched pre-cast UBM hydrogel and an overlying 2×2 cm single layer sheet of UBM was then placed in the muscle defect area. The remodeling response was evaluated following 3, 7, 14, and 35 days by quantitative histomorphologic metrics (Wolf M T, Carruthers […], Crapo P M, Huber A, Burnsed O A, Londono R, Johnson […] and others. Polypropylene surgical mesh coated with extracellular matrix mitigates the host foreign body response. J Biomed Mater Res A 2013 and Wolf […], Brennan-Pierce E P, Johnson S A, Carruthers […] hydrogel derived from decellularized dermal extracellular matrix. Biomaterials 2012;33(29):7028-38), including characterization of macrophage phenotype and neo tissue deposition. Thirty-two female Sprague Dawley rats (350-400 g at implantation) were purchased from Harlan Laboratories. […] Salicylates in whole blood were determined using the Salicylates Detection Kit from Neogen according to the manufacturer's instructions. […] Fast and Slow Myosin Heavy Chain: Myosin heavy chain positive cells in the defect area were determined by immunolabeling for fast and slow myosin heavy chain as previously described (Turner N J, Yates A J, Jr., Weber […], Stolz D B, Gilbert […]. Xenogeneic extracellular matrix as an inductive scaffold for regeneration of a functioning musculotendinous junction. Tissue Eng Part A 2010;16(11):3309-17; Valentin J E, Turner N J, Gilbert […]. Functional skeletal muscle formation with a biologic scaffold. Biomaterials 2010;31(29):7475-84; and Wolf […]. Biologic scaffold composed of skeletal muscle extracellular matrix. […]

C2C12 murine myoblasts = assay: In vitro myogenesis, THP1/C2C12 transwell co-culture; type: cell-based
Protocol: C2C12 murine myoblasts were obtained from ATCC and grown in complete media (DMEM, 10% FBS, 1% penicillin/streptomycin) at 37° C./5% CO2 according to the ATCC recommendations. Myoblasts were seeded at a density of 5,000 cells/cm^2 in 24 well plates and allowed proliferate to 90% confluence. Cells were then washed in 1×PBS and incubated in differentiation media (DMEM, 2% horse Serum, 1% penicillin/streptomycin) for 24 hours. Cells were washed in 1×PBS and placed in basal media (DMEM, 1% penicillin/streptomycin). A transwell insert (Corning) containing 100,000 differentiated THP1 cells (as described in section 2.9) in 200 μL of complete THP1 cell media was placed in each well. UBM hydrogel (0.5 mg/mL, final concentration) was then added to the THP1 transwell insert only. […] A standardized image capture system and quantitative analysis of in vitro myogenesis was performed as previously described (Goh […], Corbett J T, Pierre […], Pizza F X. Intercellular adhesion molecule-1 expression by skeletal muscle Cells Augments myogenesis. Exp Cell Res 2014). Briefly, custom macro functions (Image […]; Media Cybernetics Inc.) were used to objectively quantify several important myogenesis parameters (e.g., the number of nuclei, myotubes, and nuclei within a myotube). […] The fusion index was calculated by expressing the number of nuclei within myotubes as a percentage of total nuclei.

CC(=O)Oc1ccccc1C(=O)O [Aspirin]
reduction in collagen deposition (Sprague Dawley rats; 35 day time point, 3 mg/mL Aspirin in drinking water): 24% | reduction in myogenesis (myogenic index) compared to non-treated controls (Sprague Dawley rats; 35 days post implantation): 4 fold | in vivo reduction in myogenesis (Sprague Dawley rats): 79% | myogenesis metrics (C2C12 murine myoblasts; Aspirin 200 μM co-administered with UBM 0.5 mg/mL, 48 hours): reduced these myogenesis metrics down to control levels | reduction in fusion index (C2C12 murine myoblasts; Aspirin with UBM, THP1/C2C12 co culture): 92%
